{
  "source": "patent US20130137573A1",
  "about": "“HERBICIDAL COMPOSITIONS COMPRISING, AND METHODS OF USE OF, HERBICIDALLY ACTIVE PYRANDIONES” (priority 2009, published 2013)",
  "assay_type_in_all_cases": "in vivo",
  "key": {"[1]": {"test_system": "Leptochloa chinensis (LEFCH)", "test": "Biological Example 4 (Test 110): wet seeded rice (WSR) method, LEFCH damage", "settings": "EC050 + 0.2% Adsee, foliar spray, LEFCH 3 leaf, 14 days after application", "excerpt": "(§1) Rice seeds varieties IR-64 and Arborio, Echinochloa crus-galli (ECHCG), and Leptochloa chinensis (LEFCH) were sown in seed trays containing a standard sandy loam soil saturated with water replicating swampy conditions. They were sown at intervals to achieve plants at the following growth stages at time of application: IR-64 and Arborio rice: from 3 leaves on the main stem to tillering; ECHCG: at two different leaf stages: 0-0.5 leaf and 2-3 leaf; LEFCH: 3 leaf. Glasshouse bay conditions were 30/20° C. day/night; 18/6 hours light/dark; 75% humidity.\n(§2) The test solutions were prepared by mixing the appropriate aliquots of the test substance (here, compound A-13 as EC050 Formulation Example 1) and adjuvant (0.2% Adsee as adjuvant) in de-ionised water to give the desired treatment concentration.\n(§3) Application was as a foliar spray, made using a tracksprayer. 3 days after application the trays were flooded to 2-3 cm water depth, and maintained at this level for the duration of the test.\n(§4) No. of repetitions: 1 test only.\n(§5) A visual assessment of the % herbicidal damage was made 14 days after application (0=no damage to plants, 100=total kill)."}, "[2]": {"test_system": "Echinochloa crus-galli (ECHCG)", "test": "Biological Example 3 (Test 120): visual herbicidal damage to flooded ECHCG", "settings": "EC050, 14DAA", "protocol": "(§6) Rice seeds, variety Koshihikari, were sown in seed trays, after 7 days they were transplanted as 3 groups of 2 plants, into pots containing a standard clay soil saturated with water replicating swampy conditions. These were grown on for 9 days in a glasshouse bay (30/20° C. day/night; 18/6 hours light/dark; 75% humidity). Approx 10-20 seeds of Echinochloa crus-galli were sown into pots 13 days prior to application, in the same conditions as the rice. All pots were flooded to 2-3 cm water depth the day prior to application. Growth stages at time of application were: Rice: 2-3 leaves; ECHCG: 2-3 leaves.\n(§7) The test solutions were prepared by mixing the appropriate aliquots of the test substance (here, compound A-13 as the EC050 Formulation Example 1 disclosed herein) in de-ionised water to give the desired treatment concentration.\n(§8) Application was made by pipetting the required amount of the test solution gently into the flood water of the appropriate pot.\n(§9) The test plants were grown on in the same glasshouse conditions, and watered twice daily keeping the flood water at a depth of 2-3 cm.\nas §5"}, "[3]": {"test_system": "Echinochloa crus-galli (ECHCG)", "test": "Biological Example 2 (Test 109): visual herbicidal damage to flooded ECHCG", "settings": "EC050, into flood water, 14 days after application", "protocol": "as §6, with “IR-64,” for “Koshihikari,”, “sandy loam” for “clay”, “leaves,” for “leaves;”\nas §7, §8, §9, §5"}, "IR-64 rice": {"test_system": "IR-64 rice", "test": "Biological Example 1 (Test 125): damage (phytotoxicity) to flooded transplanted rice", "settings": "alone or in tested mixtures; A-4 mixtures especially at higher application rates of compound A-4", "from_the_text": "Rice seeds, variety IR-64 (an indica type of rice), were sown in seed trays. After 7 days the resulting plants were transplanted as 3 groups of 2 plants, into pots containing a standard sandy loam soil saturated with water replicating swampy conditions. […] Leptochloa chinensis (LEFCH) and Echinochloa crus-galli (ECHCG) were sown as 2 separate groups of approx 10-20 seeds into pots 13 days prior to application of the test substances, in the same glasshouse conditions as the rice. Therefore, each pot of weeds contained a group of LEFCH and a separate group of ECHCG. All pots of rice and all pots of weeds were flooded to 2-3 cm water depth the day prior to application of the test substances. Growth stages at time of application were as follows: Rice: from 2 leaves on the main stem up to tillering; ECHCG: from 2 leaves on the main stem up to tillering; LEFCH: 2-3 leaves.\nMost of the test substances were used as formulated products. […] Imazosulfuron (a comparator co-herbicide) was applied as a GR0.25 formulation (GR=granule).\nApplication of the test substances was made by pipetting the required amount of the test solution or the test formulation gently into the flood water of the appropriate pot.\nThe test plants were then grown on in the same glasshouse conditions, and watered twice daily keeping the flood water at a depth of 2-3 cm. […]"}, "Koshihikari rice": {"test_system": "Koshihikari rice", "test": "Biological Example 3 (Test 120): damage to flooded transplanted rice", "settings": "for Koshihikari rice % herbicidal damage, Mean of 2 repetitions / Koshihikari rice % herbicidal damage, Repetition A / Koshihikari rice % herbicidal damage, Repetition B / rice phytotoxicity (span of the 2 repetitions): EC050, 14DAA; for rice phytotoxicity (span of the 2 repetitions): Koshihikari", "protocol": "as §6, §7, §8, §9, §5"}, "[4]": {"test_system": "Echinochloa crus-galli (ECHCG)", "test": "Biological Example 4 (Test 110): wet seeded rice (WSR) method, ECHCG damage", "settings": "for WSR ECHCG 0.5lf % herbicidal damage / WSR ECHCG 3lf % herbicidal damage: EC050 + 0.2% Adsee, foliar spray, 14 days after application; for WSR ECHCG 0.5lf % herbicidal damage: 0.5 leaf stage; for WSR ECHCG 3lf % herbicidal damage: 3 leaf stage", "excerpt": "as §1, §2, §3, §4, §5"}, "[5]": {"test_system": "Echinochloa colona (ECHCO)", "test": "Biological Example 4 (Test 110): dry seeded rice (DSR) method, ECHCO damage", "settings": "for DSR ECHCO 0.5lf % herbicidal damage / DSR ECHCO 3lf % herbicidal damage: EC050 + 0.2% Adsee, foliar spray, 14 days after application; for DSR ECHCO 0.5lf % herbicidal damage: 0.5 leaf stage; for DSR ECHCO 3lf % herbicidal damage: 3 leaf stage", "protocol": "Echinochloa colona (ECHCO) seeds were sown in seed trays containing a standard sandy loam soil. They were sown at intervals to achieve plants at 0-0.5 leaf and 2-3 leaves at the time of application. Irrigation occurred to maintain the soil at moist but not saturated conditions. Glasshouse bay conditions were 30/20° C. day/night; 18/6 hours light/dark; 75% humidity.\nas §2\nApplication was as a foliar spray, made using a tracksprayer.\nThe test plants were grown on in the same glasshouse conditions, and watered to maintain moist conditions.\nas §4, §5"}},
  "data": [
    {"compound": "CC1(C)OC(C)(C)C(O)=C(c2cc(-c3ccc(Cl)cc3F)ccc2C2CC2)C1=O", "note": "[compound A-13, 4-(4′-Chloro-4-cyclopropyl-2′-fluorobiphenyl-3-yl)-2,2,6,6-tetramethylpyran-3,5-dione]", "values": [
      {"measurement": "WSR LEFCH % herbicidal damage", "setting": "[1]; 8 g/ha", "result": 10, "unit": "%"},
      {"measurement": "WSR LEFCH % herbicidal damage", "setting": "[1]; 60 g/ha", "result": 10, "unit": "%"},
      {"measurement": "WSR LEFCH % herbicidal damage", "setting": "[1]; 125 g/ha", "result": 65, "unit": "%"},
      {"measurement": "WSR LEFCH % herbicidal damage", "setting": "[1]; 500 g/ha", "result": 75, "unit": "%"},
      {"measurement": "ECHCG % herbicidal damage, Mean of 2 repetitions", "setting": "[2]; 30 g/ha", "result": 58, "unit": "%"},
      {"measurement": "ECHCG % herbicidal damage, Repetition A", "setting": "[2]; 30 g/ha", "result": 55, "unit": "%"},
      {"measurement": "ECHCG % herbicidal damage, Repetition B", "setting": "[2]; 30 g/ha", "result": 60, "unit": "%"},
      {"measurement": "ECHCG % herbicidal damage, Mean of 2 repetitions", "setting": "[2]; 60 g/ha", "result": 63, "unit": "%"},
      {"measurement": "ECHCG % herbicidal damage, Repetition A", "setting": "[2]; 60 g/ha", "result": 65, "unit": "%"},
      {"measurement": "ECHCG % herbicidal damage, Repetition B", "setting": "[2]; 60 g/ha", "result": 60, "unit": "%"},
      {"measurement": "ECHCG % herbicidal damage, Mean of 2 repetitions", "setting": "[2]; 125 g/ha", "result": 88, "unit": "%"},
      {"measurement": "ECHCG % herbicidal damage, Repetition A", "setting": "[2]; 125 g/ha", "result": 85, "unit": "%"},
      {"measurement": "ECHCG % herbicidal damage, Repetition B", "setting": "[2]; 125 g/ha", "result": 90, "unit": "%"},
      {"measurement": "ECHCG control (span of the 2 repetitions)", "setting": "[2]; 125 g/ha", "result": "85-90%"},
      {"measurement": "ECHCG % herbicidal damage", "setting": "[3]; 60 g/ha", "result": 68, "unit": "%"},
      {"measurement": "ECHCG % herbicidal damage", "setting": "[3]; 120 g/ha", "result": 90, "unit": "%"},
      {"measurement": "ECHCG % herbicidal damage", "setting": "[3]; 240 g/ha", "result": 98, "unit": "%"},
      {"measurement": "phytotoxicity (damage) to IR-64 transplanted flooded rice, in words", "setting": "IR-64 rice", "result": "very low phytotoxicity"},
      {"measurement": "Koshihikari rice % herbicidal damage, Mean of 2 repetitions", "setting": "Koshihikari rice; 125 g/ha", "result": 13, "unit": "%"},
      {"measurement": "Koshihikari rice % herbicidal damage, Repetition A", "setting": "Koshihikari rice; 125 g/ha", "result": 10, "unit": "%"},
      {"measurement": "Koshihikari rice % herbicidal damage, Repetition B", "setting": "Koshihikari rice; 125 g/ha", "result": 15, "unit": "%"},
      {"measurement": "rice phytotoxicity (span of the 2 repetitions)", "setting": "Koshihikari rice; 125 g/ha", "result": "10-15%"},
      {"measurement": "Koshihikari rice % herbicidal damage, Mean of 2 repetitions", "setting": "Koshihikari rice; 250 g/ha", "result": 20, "unit": "%"},
      {"measurement": "Koshihikari rice % herbicidal damage, Repetition A", "setting": "Koshihikari rice; 250 g/ha", "result": 20, "unit": "%"},
      {"measurement": "Koshihikari rice % herbicidal damage, Repetition B", "setting": "Koshihikari rice; 250 g/ha", "result": 20, "unit": "%"},
      {"measurement": "Koshihikari rice % herbicidal damage, Mean of 2 repetitions", "setting": "Koshihikari rice; 500 g/ha", "result": 25, "unit": "%"},
      {"measurement": "Koshihikari rice % herbicidal damage, Repetition A", "setting": "Koshihikari rice; 500 g/ha", "result": 20, "unit": "%"},
      {"measurement": "Koshihikari rice % herbicidal damage, Repetition B", "setting": "Koshihikari rice; 500 g/ha", "result": 30, "unit": "%"},
      {"measurement": "rice phytotoxicity (span of the 2 repetitions)", "setting": "Koshihikari rice; 500 g/ha", "result": "20-30%"},
      {"measurement": "selectivity margin for use on rice (Koshihikari vs ECHCG)", "setting": "Koshihikari rice; Biological Example 3, 125 g/ha vs 500 g/ha", "result": "reasonable selectivity margin"},
      {"measurement": "WSR ECHCG 0.5lf % herbicidal damage", "setting": "[4]; 8 g/ha", "result": 45, "unit": "%"},
      {"measurement": "WSR ECHCG 3lf % herbicidal damage", "setting": "[4]; 8 g/ha", "result": 65, "unit": "%"},
      {"measurement": "WSR ECHCG control", "setting": "[4]; 60 and 125 g/ha, 2 growth stages, 0.5 leaf and 3 leaf, wet seeded rice method", "result": "90-100%"},
      {"measurement": "WSR ECHCG 0.5lf % herbicidal damage", "setting": "[4]; 60 g/ha", "result": 90, "unit": "%"},
      {"measurement": "WSR ECHCG 3lf % herbicidal damage", "setting": "[4]; 60 g/ha", "result": 100, "unit": "%"},
      {"measurement": "WSR ECHCG 0.5lf % herbicidal damage", "setting": "[4]; 125 g/ha", "result": 100, "unit": "%"},
      {"measurement": "WSR ECHCG 3lf % herbicidal damage", "setting": "[4]; 125 g/ha", "result": 100, "unit": "%"},
      {"measurement": "WSR ECHCG 0.5lf % herbicidal damage", "setting": "[4]; 500 g/ha", "result": 100, "unit": "%"},
      {"measurement": "WSR ECHCG 3lf % herbicidal damage", "setting": "[4]; 500 g/ha", "result": 100, "unit": "%"},
      {"measurement": "DSR ECHCO 0.5lf % herbicidal damage", "setting": "[5]; 8 g/ha", "result": 0, "unit": "%"},
      {"measurement": "DSR ECHCO 3lf % herbicidal damage", "setting": "[5]; 8 g/ha", "result": 85, "unit": "%"},
      {"measurement": "DSR weed control, in words", "setting": "[5]; 60 and 125 g/ha, 2 growth stages, 0.5 leaf and 3 leaf, dry seeded rice method", "result": "controlled"},
      {"measurement": "DSR ECHCO 0.5lf % herbicidal damage", "setting": "[5]; 60 g/ha", "result": 90, "unit": "%"},
      {"measurement": "DSR ECHCO 3lf % herbicidal damage", "setting": "[5]; 60 g/ha", "result": 100, "unit": "%"},
      {"measurement": "DSR ECHCO 0.5lf % herbicidal damage", "setting": "[5]; 125 g/ha", "result": 90, "unit": "%"},
      {"measurement": "DSR ECHCO 3lf % herbicidal damage", "setting": "[5]; 125 g/ha", "result": 100, "unit": "%"},
      {"measurement": "DSR ECHCO 0.5lf % herbicidal damage", "setting": "[5]; 500 g/ha", "result": 90, "unit": "%"},
      {"measurement": "DSR ECHCO 3lf % herbicidal damage", "setting": "[5]; 500 g/ha", "result": 100, "unit": "%"}
    ]}
  ]
}
